Results as given in US20250276983A1, “COMPOUNDS AND METHODS FOR MODULATING HER2” (IAMBIC THERAPEUTICS, INC., priority 2022, published 2025).

Assays:
Type in all cases: cell-based
BaF3_HER2YVMA cells = assay: Cell growth inhibition assay, BaF3_HER2YVMA; conditions: 72 h, BaF3_HER2YVMA cells, 3 days treatment, CellTiterGlo 2.0; read-out: HER2-YVMA IC50 (nM), cell growth inhibition
BaF3_HER2WT cells = assay: Cell growth inhibition assay, BaF3_HER2WT; conditions: 72 h, 3 days treatment, CellTiterGlo 2.0, read-out: HER2 WT IC50 (nM), cell growth inhibition
BaF3_EGFRWT cells = assay: Cell growth inhibition assay, BaF3_EGFRWT; conditions: 72 h, 80 ng/mL recombinant human EGF, 3 days treatment, CellTiterGlo 2.0, read-out: EGFR WT IC50 (nM), cell growth inhibition

SMILES | IC50 (BaF3_HER2YVMA cells) [nM] | IC50 (BaF3_HER2WT cells) [nM] | IC50 (BaF3_EGFRWT cells) [nM]
Cc1cc(Nc2ncnn3ccc(N4CCC(N(C)C(=O)/C=C/CN(C)C)C4)c23)ccc1Oc1ccn2ncnc2c1 (stereo not drawn) [Example 70, (E)-N-(1-(4-((4-([1,2,4]triazolo[1,5-a]pyridin-7-yloxy)-3-methylphenyl)amino)pyrrolo[2,1-f][1,2,4]triazin-5-yl)pyrrolidin-3-yl)-4-(dimethylamino)-N-methylbut-2-enamide] | < 200 | < 200 | 1500 to 5000
Cc1cc(Nc2ncnn3ccc(N4CC(NC(=O)/C=C/CN(C)C)C4)c23)ccc1Oc1ccn2ncnc2c1 [Example 71, (E)-N-(1-(4-((4-([1,2,4]triazolo[1,5-a]pyridin-7-yloxy)-3-methylphenyl)amino)pyrrolo[2,1-f][1,2,4]triazin-5-yl)azetidin-3-yl)-4-(dimethylamino)but-2-enamide] | 200 to 500 | < 200 | 1500 to 5000
C=CC(=O)N(C)C1CCN(c2ccn3ncnc(Nc4ccc(Oc5ccn6ncnc6c5)c(C)c4)c23)C1 (stereo not drawn) [Example 72, N-(1-(4-((4-([1,2,4]triazolo[1,5-a]pyridin-7-yloxy)-3-methylphenyl)amino)pyrrolo[2,1-f][1,2,4]triazin-5-yl)pyrrolidin-3-yl)-N-methylacrylamide] | < 200 | < 200 | 1500 to 5000
Cc1cc(Nc2ncnn3ccc(N4CCC(N(C)C(=O)/C=C/CN(C)C)CC4)c23)ccc1Oc1ccn2ncnc2c1 [Example 73, (E)-N-(1-(4-((4-([1,2,4]triazolo[1,5-a]pyridin-7-yloxy)-3-methylphenyl)amino)pyrrolo[2,1-f][1,2,4]triazin-5-yl)piperidin-4-yl)-4-(dimethylamino)-N-methylbut-2-enamide] | 500 to 1500 | < 200 | 1500 to 5000
C=CC(=O)N(C)C1CCN(c2ccn3ncnc(Nc4ccc(Oc5ccn6ncnc6c5)c(C)c4)c23)CC1 [Example 74, N-(1-(4-((4-([1,2,4]triazolo[1,5-a]pyridin-7-yloxy)-3-methylphenyl)amino)pyrrolo[2,1-f][1,2,4]triazin-5-yl)piperidin-4-yl)-N-methylacrylamide] | 500 to 1500 | < 200 | 1500 to 5000
C=CC(=O)N1CCN(c2ccn3ncnc(Nc4ccc(Oc5ccn6ncnc6c5)c(C)c4)c23)CC12CC2 [Example 75, 1-(7-(4-((4-([1,2,4]triazolo[1,5-a]pyridin-7-yloxy)-3-methylphenyl)amino)pyrrolo[2,1-f][1,2,4]triazin-5-yl)-4,7-diazaspiro[2.5]octan-4-yl)prop-2-en-1-one] | < 200 | < 200 | 500 to 1500
C=CC(=O)NC1CCCN(c2ccn3ncnc(Nc4ccc(Oc5ccn6ncnc6c5)c(C)c4)c23)C1 (stereo not drawn) [Example 76, N-(1-(4-((4-([1,2,4]triazolo[1,5-a]pyridin-7-yloxy)-3-methylphenyl)amino)pyrrolo[2,1-f][1,2,4]triazin-5-yl)piperidin-3-yl)acrylamide] | 500 to 1500 | < 200 | 1500 to 5000
C=CC(=O)N1CC(N(C)c2ccn3ncnc(Nc4ccc(Oc5ccn6ncnc6c5)c(C)c4)c23)C1 [Example 77, 1-(3-((4-((4-([1,2,4]triazolo[1,5-a]pyridin-7-yloxy)-3-methylphenyl)amino)pyrrolo[2,1-f][1,2,4]triazin-5-yl)(methyl)amino)azetidin-1-yl)prop-2-en-1-one] | 1500 to 5000 | 200 to 500 | 1500 to 5000
C=CC(=O)NC1CCN(c2ccn3ncnc(Nc4ccc(Oc5ccn6ncnc6c5)c(C)c4)c23)CC1 [Example 78, N-(1-(4-((4-([1,2,4]triazolo[1,5-a]pyridin-7-yloxy)-3-methylphenyl)amino)pyrrolo[2,1-f][1,2,4]triazin-5-yl)piperidin-4-yl)acrylamide] | 200 to 500 | < 200 | 1500 to 5000
C=CC(=O)NC1CCN(c2ccn3ncnc(Nc4ccc(Oc5ccn6ncnc6c5)c(C)c4)c23)C1 (stereo not drawn) [Example 79, N-(1-(4-((4-([1,2,4]triazolo[1,5-a]pyridin-7-yloxy)-3-methylphenyl)amino)pyrrolo[2,1-f][1,2,4]triazin-5-yl)pyrrolidin-3-yl)acrylamide] | 200 to 500 | < 200 | 1500 to 5000

Second part, the molecule after the results:

IC50 (BaF3_HER2YVMA cells) [nM] | IC50 (BaF3_HER2WT cells) [nM] | IC50 (BaF3_EGFRWT cells) [nM] | SMILES
1500 to 5000 | < 200 | 1500 to 5000 | Cc1cc(Nc2ncnn3ccc(N4CCCN(C(=O)/C=C/CN5CCOCC5)CC4)c23)ccc1Oc1ccn2ncnc2c1 [Example 80, (E)-1-(4-(4-((4-([1,2,4]triazolo[1,5-a]pyridin-7-yloxy)-3-methylphenyl)amino)pyrrolo[2,1-f][1,2,4]triazin-5-yl)-1,4-diazepan-1-yl)-4-morpholinobut-2-en-1-one]
1500 to 5000 | 200 to 500 | 1500 to 5000 | Cc1cc(Nc2ncnn3ccc(N4CC(NC(=O)/C=C/CN5CCOCC5)C4)c23)ccc1Oc1ccn2ncnc2c1 [Example 81, (E)-N-(1-(4-((4-([1,2,4]triazolo[1,5-a]pyridin-7-yloxy)-3-methylphenyl)amino)pyrrolo[2,1-f][1,2,4]triazin-5-yl)azetidin-3-yl)-4-morpholinobut-2-enamide]
200 to 500 | < 200 | 1500 to 5000 | Cc1cc(Nc2ncnn3ccc(C4CN(C(=O)/C=C/CN5CCC(F)(F)C5)C4)c23)ccc1Oc1ccn2ncnc2c1 [Example 84, (E)-1-(3-(4-((4-([1,2,4]triazolo[1,5-a]pyridin-7-yloxy)-3-methylphenyl)amino)pyrrolo[2,1-f][1,2,4]triazin-5-yl)azetidin-1-yl)-4-(3,3-difluoropyrrolidin-1-yl)but-2-en-1-one]
< 200 | < 200 | 1500 to 5000 | Cc1cc(Nc2ncnn3ccc(C4CN(C(=O)/C=C/CN5CCC(F)(F)CC5)C4)c23)ccc1Oc1ccn2ncnc2c1 [Example 85, (E)-1-(3-(4-((4-([1,2,4]triazolo[1,5-a]pyridin-7-yloxy)-3-methylphenyl)amino)pyrrolo[2,1-f][1,2,4]triazin-5-yl)azetidin-1-yl)-4-(4,4-difluoropiperidin-1-yl)but-2-en-1-one]
> 5000 | 1500 to 5000 | 1500 to 5000 | Cc1cc(Nc2c(C#N)cnn3ccc(C4CN(C(=O)/C=C/CN(C)C)C4)c23)ccc1Oc1ccn2ncnc2c1 [Example 86, (E)-4-((4-([1,2,4]triazolo[1,5-a]pyridin-7-yloxy)-3-methylphenyl)amino)-5-(1-(4-(dimethylamino)-but-2-enoyl)azetidin-3-yl)pyrrolo[1,2-b]pyridazine-3-carbonitrile]
1500 to 5000 | 500 to 1500 | 1500 to 5000 | Cc1cc(Nc2ncnn3cnc(C4CCN(C(=O)/C=C/CN(C)C)CC4)c23)ccc1Oc1ccn2ncnc2c1 [Example 88, (E)-1-(4-(4-((4-([1,2,4]triazolo[1,5-a]pyridin-7-yloxy)-3-methylphenyl)amino)imidazo[5,1-f][1,2,4]triazin-5-yl)piperidin-1-yl)-4-(dimethylamino)but-2-en-1-one]
1500 to 5000 | 1500 to 5000 | 1500 to 5000 | Cc1cc(Nc2ncnn3ccc(C4CN(C(=O)/C(C#N)=C/C(C)(C)C)C4)c23)ccc1Oc1ccn2ncnc2c1 [Example 89, (E)-2-(3-(4-((4-([1,2,4]triazolo[1,5-a]pyridin-7-yloxy)-3-methylphenyl)amino)pyro-lo[2,1-f][1,2,4]triazin-5-yl)azetidine-1-carbonyl)-4,4-dimethylpent-2-enenitrile]
